Test results as given in PubChem BioAssay (NCI).
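Test compounds were applied to cells in 96-well plates for 48 hours at 5 doses. Here, GI50 denotes the concentration required for 50% inhibition of growth. Definition used: TGI = concentration required for complete inhibition of growth.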

Key:
Experiment in all cases: DTP human tumour cell line panel, 48 h
MCF7 breast = tested on: MCF7 breast
OVCAR-3 ovarian = tested on: OVCAR-3 ovarian
NCI/ADR-RES ovarian = tested on: NCI/ADR-RES ovarian
OVCAR-8 ovarian = tested on: OVCAR-8 ovarian
SK-MEL-5 melanoma = tested on: SK-MEL-5 melanoma
SR leukemia = tested on: SR leukemia
KM12 colon = tested on: KM12 colon
SF-268 CNS = tested on: SF-268 CNS
SF-295 CNS = tested on: SF-295 CNS
RPMI-8226 leukemia = tested on: RPMI-8226 leukemia
MOLT-4 leukemia = tested on: MOLT-4 leukemia
MALME-3M melanoma = tested on: MALME-3M melanoma
UACC-62 melanoma = tested on: UACC-62 melanoma
NCI-H522 lung = tested on: NCI-H522 lung
CAKI-1 renal = tested on: CAKI-1 renal
TK-10 renal = tested on: TK-10 renal
RXF 393 renal = tested on: RXF 393 renal
SK-OV-3 ovarian = tested on: SK-OV-3 ovarian
T-47D breast = tested on: T-47D breast
HOP-92 NSCLC = tested on: HOP-92 NSCLC
MDA-MB-231 breast = tested on: MDA-MB-231 breast
M14 melanoma = tested on: M14 melanoma
786-0 renal = tested on: 786-0 renal
HCC-2998 colon = tested on: HCC-2998 colon
HS 578T breast = tested on: HS 578T breast
CCRF-CEM leukemia = tested on: CCRF-CEM leukemia
BT-549 breast = tested on: BT-549 breast
HOP-62 NSCLC = tested on: HOP-62 NSCLC
SNB-19 CNS = tested on: SNB-19 CNS
A549 NSCLC = tested on: A549 NSCLC
UO-31 renal = tested on: UO-31 renal
IGROV1 ovarian = tested on: IGROV1 ovarian
SW-620 colon = tested on: SW-620 colon
COLO 205 colon = tested on: COLO 205 colon
EKVX NSCLC = tested on: EKVX NSCLC
U251 CNS = tested on: U251 CNS
SN12C renal = tested on: SN12C renal
NCI-H460 lung = tested on: NCI-H460 lung
MDA-MB-468 breast = tested on: MDA-MB-468 breast
SF-539 CNS = tested on: SF-539 CNS
A498 renal = tested on: A498 renal
LOX IMVI melanoma = tested on: LOX IMVI melanoma
HCT-15 colon = tested on: HCT-15 colon
NCI-H23 lung = tested on: NCI-H23 lung
UACC-257 melanoma = tested on: UACC-257 melanoma
HL-60(TB) leukemia = tested on: HL-60(TB) leukemia
ACHN renal = tested on: ACHN renal
NCI-H226 lung = tested on: NCI-H226 lung
OVCAR-4 ovarian = tested on: OVCAR-4 ovarian
DU-145 prostate = tested on: DU-145 prostate
SK-MEL-2 melanoma = tested on: SK-MEL-2 melanoma
HCT-116 colon = tested on: HCT-116 colon
MDA-MB-435 = tested on: MDA-MB-435
SNB-75 CNS = tested on: SNB-75 CNS
SK-MEL-28 melanoma = tested on: SK-MEL-28 melanoma
K-562 leukemia = tested on: K-562 leukemia
HT29 colon = tested on: HT29 colon
OVCAR-5 ovarian = tested on: OVCAR-5 ovarian
PC-3 prostate = tested on: PC-3 prostate

O=C(N/N=C/c1c[nH]c2ccccc12)Nc1ccc(F)c(Cl)c1
GI50 (MCF7 breast): 6.47 µM | TGI (MCF7 breast): 23.1 µM | GI50 (OVCAR-3 ovarian): 11.5 µM | TGI (OVCAR-3 ovarian): 23.6 µM | GI50 (NCI/ADR-RES ovarian): 6.05 µM | TGI (NCI/ADR-RES ovarian): 25 µM | GI50 (OVCAR-8 ovarian): 14.3 µM | TGI (OVCAR-8 ovarian): 31.6 µM | GI50 (SK-MEL-5 melanoma): 8.65 µM | TGI (SK-MEL-5 melanoma): 20.8 µM | GI50 (SR leukemia): 2.2 µM | TGI (SR leukemia): 13.3 µM | GI50 (KM12 colon): 8.76 µM | TGI (KM12 colon): 21 µM | GI50 (SF-268 CNS): 8.09 µM | TGI (SF-268 CNS): 20.9 µM | GI50 (SF-295 CNS): 14.4 µM | TGI (SF-295 CNS): 27.4 µM | GI50 (RPMI-8226 leukemia): 1.48 µM | TGI (RPMI-8226 leukemia): 9.26 µM | GI50 (MOLT-4 leukemia): 1.44 µM | TGI (MOLT-4 leukemia): 11.8 µM | GI50 (MALME-3M melanoma): 12.6 µM | TGI (MALME-3M melanoma): 25.1 µM | GI50 (UACC-62 melanoma): 10.8 µM | TGI (UACC-62 melanoma): 22.6 µM | GI50 (NCI-H522 lung): 1.68 µM | TGI (NCI-H522 lung): 8.35 µM | GI50 (CAKI-1 renal): 14.8 µM | TGI (CAKI-1 renal): 28 µM | GI50 (TK-10 renal): 22.8 µM | TGI (TK-10 renal): 44.3 µM | GI50 (RXF 393 renal): 3.97 µM | TGI (RXF 393 renal): 15.5 µM | GI50 (SK-OV-3 ovarian): 12.9 µM | TGI (SK-OV-3 ovarian): 26.8 µM | GI50 (T-47D breast): 11.5 µM | TGI (T-47D breast): 32 µM | GI50 (HOP-92 NSCLC): 2.04 µM | TGI (HOP-92 NSCLC): 6.59 µM | GI50 (MDA-MB-231 breast): 11.8 µM | TGI (MDA-MB-231 breast): 24 µM | GI50 (M14 melanoma): 1.57 µM | TGI (M14 melanoma): 3.44 µM | GI50 (786-0 renal): 1.37 µM | TGI (786-0 renal): 3.27 µM | GI50 (HCC-2998 colon): 11.7 µM | TGI (HCC-2998 colon): 23.9 µM | GI50 (HS 578T breast): 13.7 µM | TGI (HS 578T breast): 39.7 µM | GI50 (CCRF-CEM leukemia): 0.604 µM | TGI (CCRF-CEM leukemia): 11.7 µM | GI50 (BT-549 breast): 0.312 µM | TGI (BT-549 breast): 1.54 µM | GI50 (HOP-62 NSCLC): 13.1 µM | TGI (HOP-62 NSCLC): 25.8 µM | GI50 (SNB-19 CNS): 14.9 µM | TGI (SNB-19 CNS): 28.1 µM | GI50 (A549 NSCLC): 12.7 µM | TGI (A549 NSCLC): 26.3 µM | GI50 (UO-31 renal): 5.01 µM | TGI (UO-31 renal): 19.4 µM | GI50 (IGROV1 ovarian): 7.6 µM | TGI (IGROV1 ovarian): 21.7 µM | GI50 (SW-620 colon): 10.9 µM | TGI (SW-620 colon): 22.8 µM | GI50 (COLO 205 colon): 14.1 µM | TGI (COLO 205 colon): 27.1 µM | GI50 (EKVX NSCLC): 13.8 µM | TGI (EKVX NSCLC): 28.6 µM | GI50 (U251 CNS): 13.3 µM | TGI (U251 CNS): 26 µM | GI50 (SN12C renal): 11.2 µM | TGI (SN12C renal): 23.2 µM | GI50 (NCI-H460 lung): 13 µM | TGI (NCI-H460 lung): 26.3 µM | GI50 (MDA-MB-468 breast): 1.98 µM | TGI (MDA-MB-468 breast): 7.74 µM | GI50 (SF-539 CNS): 10.1 µM | TGI (SF-539 CNS): 21.6 µM | GI50 (A498 renal): 15.4 µM | TGI (A498 renal): 30.2 µM | GI50 (LOX IMVI melanoma): 11.2 µM | TGI (LOX IMVI melanoma): 23.2 µM | GI50 (HCT-15 colon): 5.13 µM | TGI (HCT-15 colon): 17.9 µM | GI50 (NCI-H23 lung): 13.5 µM | TGI (NCI-H23 lung): 27.2 µM | GI50 (UACC-257 melanoma): 13.6 µM | TGI (UACC-257 melanoma): 26.4 µM | GI50 (HL-60(TB) leukemia): 3.44 µM | TGI (HL-60(TB) leukemia): 18.8 µM | GI50 (ACHN renal): 14.6 µM | TGI (ACHN renal): 27.7 µM | GI50 (NCI-H226 lung): 10.3 µM | TGI (NCI-H226 lung): 34.7 µM | GI50 (OVCAR-4 ovarian): 12.8 µM | TGI (OVCAR-4 ovarian): 28.7 µM | GI50 (DU-145 prostate): 14.4 µM | TGI (DU-145 prostate): 27.4 µM | GI50 (SK-MEL-2 melanoma): 10.7 µM | TGI (SK-MEL-2 melanoma): 22.6 µM | GI50 (HCT-116 colon): 1.49 µM | TGI (HCT-116 colon): 2.84 µM | GI50 (MDA-MB-435): 3.35 µM | TGI (MDA-MB-435): 12.6 µM | GI50 (SNB-75 CNS): 11.8 µM | TGI (SNB-75 CNS): 24 µM | GI50 (SK-MEL-28 melanoma): 12.5 µM | TGI (SK-MEL-28 melanoma): 25 µM | GI50 (K-562 leukemia): 1.86 µM | TGI (K-562 leukemia): 17.4 µM | GI50 (HT29 colon): 12.7 µM | TGI (HT29 colon): 25.3 µM | GI50 (OVCAR-5 ovarian): 13.5 µM | TGI (OVCAR-5 ovarian): 26.3 µM | GI50 (PC-3 prostate): 3.12 µM | TGI (PC-3 prostate): 14.5 µM
